Measured values reported in patent US20220338759A1, “DEVICE FOR CALCULATING, DURING ONE STEP OR EACH SUCCESSIVE STEP OF THE GAIT OF A SUBJECT, THE PUSH-OFF P0 OF THE SUBJECT” (Centre National De La Recherche Scientifique, priority 2019, published 2022).
Several values for one entry are separate records, joined by “and”; a condition that tells them apart may be missing. Equal entries are not always repeated.

What was measured:
[1] = test system: progressive multiple sclerosis; details: cited from earlier work
[2] = test system: patients with progressive MS (pMS); experiment: Prospective observational 12-month study of pMS patients with newly introduced MD1003 (pMS-b cohort): T25FW, Po and falls at M0 and M6; type: in vivo, human; details: for mean change in Po / mean change in TW25F: M6 vs M0
Procedure: We perform a prospective observational study to evaluate a measure of a surrogate of ankle push-off moment power (Po) as a biomarker of evolution in pMS patients with stable treatment and pMS patients with newly introduced MD1003 (high-dose biotin). Po is measured during a 10m-walk with U-turn and back, using an IMU attached to each foot. The objective is to assess whether the dynamic measure of Po at 6-month interval reflects the response to treatment (assessed using the change in the timed 25-foot walk or the Expanded Disease Status Scale) and the change in fall risk within 6 months.
Second, the inventors aim at measuring how this variation in Po impact evolution of fall risk in this group of pMS patients. […] The T25FW, Po and risk of falls was assessed every 6 months using a simple validated protocol and the evolution of Po and the risk of falls were compared for each individual according to their response to treatment.
Patients—Thirty-three patients with progressive MS (pMS) and 20 gender and age-matched healthy subjects (HS) were enrolled in this longitudinal prospective study (table 1). pMS were recruited consecutively from the outpatient clinic of Percy Hospital (Clamart, France) between December 2017 and April 2018. The inclusion criteria for participation in the pMS cohorts required participants to be at least 18 years old, be diagnosed with primary progressive or secondary progressive multiple sclerosis according to the 2010 International Panel criteria, be capable of walking 20 m with U-turn, be free of any other conditions that affect gait. The exclusion criteria was pregnancy and high-dose biotin intake before M0. From the pMS cohort, the inventors isolated a subgroup, named pMS-b cohort, built with patients who were treated with high-dose biotin (MD1003 100 mg, three times a day) for at least one year after inclusion. For participating in the pMS-b cohort, additional inclusion criteria were those of the cohort Temporary Use Authorisation (TUAc) of MD1003—they had to have been free of any relapse for at least one year and sign the consent to enter the TUA cohort. The other patients were included in a group named pMS-nb. Exclusion criteria from this pMS-nb cohort were the presence of drug intake modification for the six-months prior to inclusions or during the twelve-month follow-up. HS participants were recruited from the hospital and research unit staff between December 2017 and April 2018. The inclusion criteria for participation in the HS cohort included: no report of falls in the past 5 years before inclusion, no disease that could affect their walk. Seventeen patients were included in the pMS-b cohort and 16 in the pMS-nb cohort. All participants gave their written consent to participate in the study. The study protocol was conducted according to the Helsinki principles and approved by Ethic Comity “Protection des Personnes Nord Ouest III” under the ID RCB: 2017-A01538-45.
Measures—Gait was measured using four 3-dimensional accelerometers (Mtw XSens®, 100 Hz sampling frequency) positioned on the head, lower back (L4-L5 vertebrae) and dorsal part of both feet. Participants performed two walks of 20 m with U-turn (10 m way in and 10 m way out). One trial per visit only was used in this study, as the second trial was done with specific conditions for the sake of a reproducibility test in a previous study. A limit at 7.62 m was drawn for the assessor to timeclock the T25FW during the first way-in. Disease severity was assessed using patient-reported outcomes (the Multiple Sclerosis Walking Scale-12—MSWS—and the Fatigue Impact Scale—FIS) together with clinical evaluation (Expanded Disease Severity Scale [10]-EDSS—and Computerized Speed Cognitive Test [11]—CSCT) and the 25-foot walking test administered according to a validated standardized protocol. […]

[3] = pMS-b (n = 17), T25FW at M6 vs M0

Structure (SMILES): O=C(O)CCCC[C@@H]1SC[C@@H]2NC(=O)N[C@@H]21 [MD1003, biotin]
- response to treatment as defined by a 20% decrease in TW25F ([1]; cohort of the phase 3 clinical trial [14]): 8.7%
- patients in whom the T25FW time decreased by 20% ([1]; recently demonstrated efficacy of MD1003): 10%
- response to treatment as defined by a 20% decrease in TW25F ([2]; our cohort (pMS-b)): 13%
- complete responder (≥20% decrease), number of patients ([2]; pMS-b (n = 17), MD1003 100 mg three times a day, T25FW at M6 vs M0): 3/17 and 3
- complete progressor (≥20% increase), number of patients [2, 3]: 5
- complete progressor (≥20% increase), percent of patients [2, 3]: (29%)
- non responder (−10-10% decrease), number of patients [2, 3]: 5
- non responder (−10-10% decrease), percent of patients [2, 3]: (29%)
- partial progressor (10-20% increase), number of patients [2, 3]: 2
- partial progressor (10-20% increase), percent of patients [2, 3]: (12%)
- partial responder (10-20% decrease), number of patients [2, 3]: 2
- partial responder (10-20% decrease), percent of patients [2, 3]: (12%)
- participants who decreased their number of falls among the three with Po decreased by more than 20% ([2]; pMS-b cohort): Two
- significant change of Po after beginning of MD1003 ([2]; pMS-b cohort): nearly half the cohort
- responders (response to treatment by change in timed 25-foot walk or EDSS) ([2]; pMS-b cohort, summary of results, M0 to M6): 2/17
- participants who decreased their Po by more than 20% ([2]; pMS-b cohort, M0 to M6): Three
- mean change in Po ([2]; pMS-b complete progressors): −0.36
- mean change in TW25F ([2]; pMS-b complete progressors): 1.39
- mean change in Po ([2]; pMS-b complete responders): 0.33
- mean change in TW25F ([2]; pMS-b complete responders): −0.26
- number of falls in the following 6 months in the 4 patients with significant increase (higher than 20%) in Po ([2]; pMS-b group): equal or lower number of falls
- patients showing an increase in Po of more than 20% ([2]; pMS-b group, 17 patients, M0 to M6): 4
- patients who increased their Po ([2]; pMS-b group, out of the 17 patients, M0 to M6): 8
- patients who did not fall during the first 6-month period and began falling during the second 6-month period ([2]; pMS-b group, M0-M6 vs M6-M12): 3
- patients who fell during the first 6-month period and stopped falling during the second 6-month period ([2]; pMS-b group, M0-M6 vs M6-M12): 1
- mean change in Po ([2]; pMS-b non responders): −0.02
- mean change in TW25F ([2]; pMS-b non responders): 0.00
- mean change in Po ([2]; pMS-b partial progressors): 0.05
- mean change in TW25F ([2]; pMS-b partial progressors): 0.17
- mean change in Po ([2]; pMS-b partial responders): 0.14
- mean change in TW25F ([2]; pMS-b partial responders): −0.17
- effect on locomotion ([2]; small sample of pMS patients): improved the locomotion in a subset pMS patients
